Bridge positions count the residues as written; N and C are the ends. Peptide text beside a SMILES is read from it.
Target: T1, trypsin (Bos taurus, UniProt P00760)
T1 construct: gene PRSS1
T1 sequence (P00760 24-246): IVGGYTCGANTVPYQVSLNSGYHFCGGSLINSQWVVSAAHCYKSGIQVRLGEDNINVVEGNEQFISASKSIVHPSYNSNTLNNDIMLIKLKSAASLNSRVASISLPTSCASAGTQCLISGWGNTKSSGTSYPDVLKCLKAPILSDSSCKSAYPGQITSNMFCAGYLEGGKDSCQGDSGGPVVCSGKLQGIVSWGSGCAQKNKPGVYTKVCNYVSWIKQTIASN
Assay: Inhibition of trypsin, determination of inhibition constants (Ki)
Assay type: biochemical
Method: The substrate utilized was Abz-Phe-Arg-Ser-Ser-Arg-Gln-EDDnp (SEQ ID NO: 11), a fluorescent analog of bradykinin, purified by way of high pressure liquid chromatography, (HPLC) until purity greater than 95% (single peak) was achieved.
The hydrolysis reactions were conducted using a Hitachi. F-2000 spectrofluorometer, with the excitation and emission slits set at 10 and 20 nm, and the excitation and emission wavelengths at 320 and 420 nm, respectively. The temperature of the reaction cuvette was maintained at 37° C. in a thermostatically controlled compartment.
The enzymatic activity of trypsin (0.5-5 nM) was determined in 50 mM Tris-HCl buffer, pH 8.0, containing 20 mM NaCl at 37° C., with the addition of approximately 0.1-6.0 μM of the fluorescent substrates. The increase in fluorescence was monitored continually for 5 min in the spectrofluorometer. When necessary, the correction of the fluorescent reading was done using the empiric equation described by Araújo et. al., Biochemistry 25; 8519, 2000. Kinetic data were determined from the initial hydrolysis (consumption of substrate less than 10%) and calculations involving kinetic parameters (Km, Vmáx and kcat) were performed using the Michaelis-Menten equation furnished by the GRAFIT for Windows 3.0 program.
To determine the inhibition kinetics of trypsin with the peptides of the present invention, three substrate concentrations were used: a) corresponding to half of the value of Km (0.8 μM); b) corresponding to the whole value of Km (1.6 μM); c) corresponding to slightly more than double the value of Km (3.5 μM). […] Incubation carried out at 37° C. Tris-HCl buffer, pH 8.0, containing 20 mM NaCl at 37° C. For characterization of enzymatic inhibition, a Lineweaver-Burk plot was employed (1/V vs 1/S), and the value of Ki was determined from the relation between the apparent inhibition constant (Ki(app)) and the value of Km for the substrate: Ki(app)=[I]/[(v0/vi)−1] and Ki=Ki(app)/[(Km/[S])+1] where; [I]=inhibitor concentration; (v0/vi)=ratio of the hydrolysis velocities in the absence and presence of inhibitor, respectively. Km/[S]=ratio between Km of the substrate and substrate concentration.

`CC[C@H](C)[C@H](N)C(=O)N1CCC[C@H]1C(=O)N[C@@H](CCCNC(=N)N)C(=O)N[C@H]1CSSC[C@@H](C(=O)O)NC(=O)[C@H](CCSC)NC(=O)[C@H](CCCCN)NC(=O)[C@H](C(C)C)NC(=O)CNC(=O)[C@@H]2CCCN2C(=O)[C@H](CCSC)NC(=O)[C@H](CCCCN)NC(=O)[C@H](CCCNC(=N)N)NC1=O` [SEQ ID NO: 1, Ile1-Pro2-Arg3-Cys4-Arg5-Lys6-Met7-Pro8-Gly9-Val10-Lys11-Met12-Cys13] (H-IPRCRKMPGVKMC-OH; disulfide 4-13) was tested, and the Ki was 22.5 nM and the “type of inhibition of trypsin” value (FIG. 1) was “simple, competitive inhibition”.

Work on `CC[C@H](C)[C@@H]1NC(=O)[C@H]([C@@H](C)O)NC(=O)[C@@H](NC(=O)[C@H](CCC(N)=O)NC(=O)[C@H](CCC(=O)O)NC(=O)[C@@H](N)C(C)C)CSSC[C@@H](C(=O)O)NC(=O)[C@H](CC(=O)O)NC(=O)[C@H](CCCCN)NC(=O)[C@H](CCC(=O)O)NC(=O)[C@H](CC(=O)O)NC(=O)CNC(=O)[C@H]([C@@H](C)CC)NC1=O` [SEQ ID NO: 2, Val1-Glu2-Gln3-Cys4-Thr5-Ile6-Ile7-Gly8-Asp9-Glu10-Lys11-Asp12-Cys13] (H-VEQCTIIGDEKDC-OH; disulfide 4-13) yielded a Ki of 24 nM.

Work on `CC[C@H](C)[C@@H]1NC(=O)[C@H]([C@@H](C)O)NC(=O)[C@@H](NC(=O)[C@H](CCC(N)=O)NC(=O)[C@H](CCC(=O)O)NC(=O)[C@@H](N)C(C)C)CSSC[C@@H](C(=O)O)NC(=O)[C@H](CC(=O)O)NC(=O)[C@H](CCCCN)NC(=O)[C@H](C)NC(=O)[C@H](CC(=O)O)NC(=O)CNC(=O)[C@H]([C@@H](C)CC)NC1=O` [SEQ ID NO: 3, Val1-Glu2-Gln3-Cys4-Thr5-Ile6-Ile7-Gly8-Asp9-Ala10-Lys11-Asp12-Cys13] (H-VEQCTIIGDAKDC-OH; disulfide 4-13) yielded a Ki of 63.6 nM.

`CC[C@H](C)[C@@H]1NC(=O)[C@H](CCC(=O)O)NC(=O)[C@H](CO)NC(=O)[C@@H](NC(=O)[C@H](CCC(N)=O)NC(=O)[C@H](CCC(N)=O)NC(=O)[C@@H](N)C(C)C)CSSC[C@@H](C(=O)O)NC(=O)[C@@H]2CCCN2C(=O)[C@H](CCCCN)NC(=O)[C@H](C)NC(=O)CNC(=O)[C@H](C)NC1=O` [SEQ ID NO: 4, Val1-Gln2-Gln3-Cys4-Ser5-Glu6-Ile7-Ala8-Gly9-Ala10-Lys11-Pro12-Cys13] (H-VQQCSEIAGAKPC-OH; disulfide 4-13) showed a Ki of 42 nM.

`CC[C@H](C)[C@@H]1NC(=O)[C@H](CCCCN)NC(=O)[C@H](CC(=O)O)NC(=O)[C@@H](NC(=O)[C@H](CCCNC(=N)N)NC(=O)[C@H](Cc2c[nH]cn2)NC(=O)[C@@H](N)CC(C)C)CSSC[C@@H](C(=O)O)NC(=O)[C@@H]2CCCN2C(=O)[C@H](CCCCN)NC(=O)[C@H](C)NC(=O)[C@H](CC(=O)O)NC(=O)[C@H](C)NC1=O` [SEQ ID NO: 5, Leu1-His2-Arg3-Cys4-Asp5-Lys6-Ile7-Ala8-Asp9-Ala10-Lys11-Pro12-Cys13] (H-LHRCDKIADAKPC-OH; disulfide 4-13) showed a Ki of 44 nM.

Compound `CC[C@H](C)[C@H](N)C(=O)N1CCC[C@H]1C(=O)N[C@@H](CCCNC(=N)N)C(=O)N[C@H]1CSSC[C@@H](C(=O)O)NC(=O)[C@H](CCSC)NC(=O)[C@H](CCCCN)NC(=O)[C@H](C(C)C)NC(=O)CNC(=O)[C@@H]2CCCN2C(=O)[C@H](CCSC)NC(=O)[C@H](C)NC(=O)[C@H](CCCNC(=N)N)NC1=O` [SEQ ID NO: 6, Ile1-Pro2-Arg3-Cys4-Arg5-Ala6-Met7-Pro8-Gly9-Val10-Lys11-Met12-Cys13] (H-IPRCRAMPGVKMC-OH; disulfide 4-13) has a Ki of 24.2 nM.

`CC[C@H](C)[C@H](NC(C)=O)C(=O)N1CCC[C@H]1C(=O)N[C@@H](CCCNC(=N)N)C(=O)N[C@H]1CSSC[C@@H](C(=O)O)NC(=O)[C@H](CCSC)NC(=O)[C@H](CCCCN)NC(=O)[C@H](C(C)C)NC(=O)CNC(=O)[C@@H]2CCCN2C(=O)[C@H](CCSC)NC(=O)[C@H](CCCCN)NC(=O)[C@H](CCCNC(=N)N)NC1=O` [SEQ ID NO: 8, Ac-Ile1-Pro2-Arg3-Cys4-Arg5-Lys6-Met7-Pro8-Gly9-Val10-Lys11-Met12-Cys13] (Ac-IPRCRKMPGVKMC-OH; disulfide 4-13) gave a Ki of 24.8 nM.

In the case of `CC[C@H](C)[C@H](NC(C)=O)C(=O)N1CCC[C@H]1C(=O)N[C@@H](CCCNC(=N)N)C(=O)N[C@H]1CSSC[C@@H](C(N)=O)NC(=O)[C@H](CCSC)NC(=O)[C@H](CCCCN)NC(=O)[C@H](C(C)C)NC(=O)CNC(=O)[C@@H]2CCCN2C(=O)[C@H](CCSC)NC(=O)[C@H](CCCCN)NC(=O)[C@H](CCCNC(=N)N)NC1=O` [SEQ ID NO: 9, Ac-Ile1-Pro2-Arg3-Cys4-Arg5-Lys6-Met7-Pro8-Gly9-Val10-Lys11-Met12-Cys13-NH2] (Ac-IPRCRKMPGVKMC-NH2; disulfide 4-13), the Ki is reported as 21.8 nM.
